We go through one molecule from ChEMBL document CHEMBL5143593 (Eur J Med Chem, 2022).

Series [1] is described as follows: Permeability of compound at pH 7.4 by PAMPA assay. For orientation: PAMPA measures passive passage across an artificial lipid membrane.
Series [2] can be described thus: MRT in male Wistar rat brain at 20 mg/kg, ip. It counts as ADME, organism-based.
Series [3] deals with T1, 5-hydroxytryptamine receptor 1A (Homo sapiens, UniProt P08908).
T1 sequence (P08908 whole entry): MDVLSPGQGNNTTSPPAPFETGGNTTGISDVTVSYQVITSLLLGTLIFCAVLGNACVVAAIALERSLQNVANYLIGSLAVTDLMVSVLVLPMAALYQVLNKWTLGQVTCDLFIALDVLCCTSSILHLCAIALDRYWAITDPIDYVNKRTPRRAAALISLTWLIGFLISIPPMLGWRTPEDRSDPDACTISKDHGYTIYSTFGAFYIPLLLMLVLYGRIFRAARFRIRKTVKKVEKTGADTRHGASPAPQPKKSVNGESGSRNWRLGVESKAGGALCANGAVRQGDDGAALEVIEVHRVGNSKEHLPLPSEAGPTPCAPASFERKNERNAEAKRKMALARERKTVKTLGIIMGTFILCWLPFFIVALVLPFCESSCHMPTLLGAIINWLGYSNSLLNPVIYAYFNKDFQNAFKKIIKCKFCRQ
The experiment in a line: Displacement of [3H]-8-OH-DPAT from human 5-HT1A receptor expressed in HEK293 cells measured after 1 hr by Microbeta plate reader method. Format: cell-based. On the technique in general: Loss of bound radioactivity is the signal in a displacement assay; it reports binding, not function.

A short description of series [4]: AUC in male Wistar rat brain at 20 mg/kg, ip. Format: ADME, organism-based. Particulars: in vivo. Details: dose 20 mg/kg, route ip.
Series [5] is described as follows: Half-life in male Wistar rat plasma at 20 mg/kg, ip. Format: ADME, organism-based.
Series [6] can be described thus: Tmax in male Wistar rat plasma at 20 mg/kg, ip. It counts as ADME, organism-based.
A short description of series [7]: MRT in male Wistar rat plasma at 20 mg/kg, ip. Format: ADME, organism-based.
Series [8] can be described thus: Toxicity in male Wistar rat assessed as maximum tolerated dose administered intraperitoneally. The following applies: in vivo, route ip.
The nature of series [9]: Half-life in male Wistar rat brain at 20 mg/kg, ip. Format: ADME, organism-based.
Series [10] is described as follows: Toxicity in male Wistar rat assessed as abnormalities (breathing changes, low activity, abdominal pain during manipulation, narrowed eyes and provoked vocalization) at 27.8 mg/kg, ip. It counts as organism-based. The following applies: in vivo.
Series [11] deals with 5-hydroxytryptamine receptor 7 (Homo sapiens, UniProt P34969). The experiment in a line: Displacement of [3H]-5-CT from human 5-HT7b receptor expressed in HEK293 cells measured after 1 hr by Microbeta plate reader method. Format: cell-based.
5-hydroxytryptamine receptor 7, sequence (P34969 whole entry): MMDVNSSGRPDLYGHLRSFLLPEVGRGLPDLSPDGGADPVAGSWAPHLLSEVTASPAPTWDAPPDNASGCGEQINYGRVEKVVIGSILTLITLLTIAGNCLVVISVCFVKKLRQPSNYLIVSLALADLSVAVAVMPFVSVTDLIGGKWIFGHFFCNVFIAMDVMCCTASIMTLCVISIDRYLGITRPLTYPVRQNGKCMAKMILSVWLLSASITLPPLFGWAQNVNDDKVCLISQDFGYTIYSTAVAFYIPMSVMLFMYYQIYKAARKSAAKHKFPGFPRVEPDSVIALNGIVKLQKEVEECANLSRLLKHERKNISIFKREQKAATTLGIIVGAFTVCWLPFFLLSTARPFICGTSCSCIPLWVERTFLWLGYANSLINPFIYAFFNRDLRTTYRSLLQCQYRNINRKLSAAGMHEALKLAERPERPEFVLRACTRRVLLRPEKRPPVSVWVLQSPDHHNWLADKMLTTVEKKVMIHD
Series [12] can be described thus: Toxicity in male Wistar rat assessed as abnormalities in liver at 20 mg/kg, ip. Format: organism-based. The following applies: in vivo.
A short description of series [13]: AUC in male Wistar rat plasma at 20 mg/kg, ip. It counts as ADME, organism-based. Also on record: dose 20 mg/kg, route ip. Particulars: in vivo.
Series [14] can be described thus: Toxicity in male Wistar rat assessed as abnormalities in kidney at 20 mg/kg, ip. Particulars: in vivo. Format: organism-based.
Series [15] is described as follows: Toxicity in male Wistar rat assessed as abnormalities in blood plasma at 20 mg/kg, ip. Particulars: in vivo. It counts as organism-based.
A short description of series [16]: Cmax in male Wistar rat brain at 20 mg/kg, ip. Also on record: dose 20 mg/kg, route ip. Format: ADME, organism-based.
Series [17] in a line: Toxicity in male Wistar rat assessed as abnormalities (low activity and narrowed eyes) at 27.8 mg/kg, ip measured after 24 hrs. It counts as organism-based. Particulars: in vivo.
In series [18] the target is 5-hydroxytryptamine receptor 2A (Homo sapiens, UniProt P28223). Briefly: Displacement of [3H]-ketanserin from human 5-HT2A receptor expressed in CHO-K1 cells measured after 1.5 hrs by Microbeta plate reader method. Format: cell-based.
5-hydroxytryptamine receptor 2A, sequence (P28223 whole entry): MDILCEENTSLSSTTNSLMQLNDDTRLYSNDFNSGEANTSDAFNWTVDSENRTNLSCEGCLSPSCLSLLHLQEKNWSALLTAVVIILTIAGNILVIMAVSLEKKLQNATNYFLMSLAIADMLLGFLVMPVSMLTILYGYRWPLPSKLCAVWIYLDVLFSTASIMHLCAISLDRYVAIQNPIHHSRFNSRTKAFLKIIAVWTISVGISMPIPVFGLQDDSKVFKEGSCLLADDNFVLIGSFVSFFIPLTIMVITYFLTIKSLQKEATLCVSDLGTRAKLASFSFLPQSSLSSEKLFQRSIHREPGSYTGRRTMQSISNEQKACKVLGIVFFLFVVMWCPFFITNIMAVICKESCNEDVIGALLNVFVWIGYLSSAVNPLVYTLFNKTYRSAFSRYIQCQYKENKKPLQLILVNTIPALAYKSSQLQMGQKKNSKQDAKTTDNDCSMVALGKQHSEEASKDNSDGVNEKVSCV
Series [19] in a line: Cmax in male Wistar rat plasma at 20 mg/kg, ip. Format: ADME, organism-based. Also on record: dose 20 mg/kg, route ip.
A short description of series [20]: Toxicity in male Wistar rat assessed as abnormalities (breathing changes, low activity and narrowed eyes) at 20 mg/kg, ip measured after 4 hrs. Format: organism-based. The following applies: in vivo.
Series [21] can be described thus: Tmax in male Wistar rat brain at 20 mg/kg, ip. It counts as ADME, organism-based.

For orientation: Papp means the rate of passage across a membrane or cell layer, normalised by area and donor concentration. Broadly, the MRT is a mean duration of stay, worked out from the concentration-time curve. The term Ki denotes a measure of affinity in units of concentration, obtained from inhibition or displacement. The term AUC denotes concentration integrated over time. As a reminder, the half-life is how long it takes for the measured level to halve. Low readings indicate rapid decline, high ones slow decline. What is called Tmax is the time at which the peak concentration occurs. A word on the MTD: it is the highest dose tested that stayed within the study's limit of toxicity. Usually Cmax stands for the highest concentration seen after dosing. In series [1], `COc1ccccc1N1CCN(CCCN2CCN(c3ncccc3C#N)CC2)CC1` came in with a Papp of 20 ×10⁻⁶ cm/s. In addition, the mean residence time (MRT) in [2] is 57.8 min; in series [7] it was 1.02 h. Besides, the results for the inhibition constant (Ki) in series [3], in [11] and in series [18] were 18 nM, 2700 nM and 23 µM, respectively. Moreover, the AUC worked out at 272930.4 nmol·min/L in series [4] and 91958.8 nmol·min/L in [13]. Moreover, the values for the half-life in series [5] and in series [9] were 48.8 min and 26.7 min, respectively. For the same molecule, the time to peak (Tmax) in series [6] and in [21] was 5 min each time. The MTD in series [8] was determined as 2.78 mg/kg. Also, the Activity result in [10] is recorded as “Toxic”; in [12], “Non-Toxic”; in series [14] it was “Non-Toxic”; in [15], “Non-Toxic”; in [17] it was “Toxic”; in series [20], “Toxic”. Also, the maximum concentration (Cmax) was found to be 3.52 µM in [16] and 3.21 µM in series [19].
